For this assay, the target named is T1, VcINDY (Vibrio cholerae, UniProt Q9KNE0).
T1 construct: gene VC_A0025

Molecules are shown by their SMILES.

As to `O=C(O)CCC(=O)O` [succinate], the Km (as a rule, the substrate concentration at which the rate is half of its maximum) was found to be 220 µM.
